According to the supplement of paper PMC10307832:

The cell lines below were run with COc1nc(N)nc2c1ncn2[C@@H]1O[C@H](CO)[C@@H](O)[C@@H]1O [Nelarabine] + COc1cc2c(Oc3ccc(NC(=O)C4(C(=O)Nc5ccc(F)cc5)CC4)cc3F)ccnc2cc1OCCCN1CCOCC1 [Foretinib] (partner 0.25 µM) (assay: relative viability (nuclei count vs DMSO), 5 days (fraction); higher = more cells survive). Settings: first compound 0.01 µM.
Method in brief: (§1)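 Five library-drug doses in √10 steps were combined with a fixed anchor-drug dose, or a single drug was given alone, by pin tool to lung cancer cell lines in 1536-well plates the day after seeding. Nuclei were stained and counted after 5 days. Relative viability is the nuclei count in treated wells over that in vehicle wells, taken as the median of duplicate plates.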

Cell Line	relative viability
NCI-H1793	0.84
NCI-H1915	1.13
NCI-H1944	1.09
NCI-H1975	1.01
NCI-H1993	0.845
NCI-H2009	1.19
NCI-H2023	0.942
NCI-H2085	0.96
NCI-H2087	1.43
NCI-H2126	1.24
NCI-H2170	1.21
NCI-H2228	0.977
NCI-H2347	0.838
NCI-H2405	1.07
NCI-H3122	1.11
PC-3 [JPC-3]	1.14
PC-14	1.04

Same assay, conditions: first compound 0.03162 µM

Cell Line	relative viability
NCI-H23	0.862
NCI-H322M	0.948
NCI-H441	0.977
NCI-H460	1.23
NCI-H520	0.799
NCI-H596	0.917
NCI-H647	1.02
NCI-H838	0.937
NCI-H1355	0.984
NCI-H1395	0.923
NCI-H1437	1.18
NCI-H1650	1.16
NCI-H1651	0.782
NCI-H1666	1.02
NCI-H1734	0.818
NCI-H1755	0.82

Cell Line	relative viability
NCI-H1793	0.747
NCI-H1915	1.03
NCI-H1944	0.896
NCI-H1975	0.892
NCI-H1993	0.712
NCI-H2009	1.2
NCI-H2023	0.737
NCI-H2085	1.04
NCI-H2087	0.917
NCI-H2126	1.13
NCI-H2170	0.974
NCI-H2228	1.02
NCI-H2405	1.04
NCI-H3122	0.771
PC-3 [JPC-3]	0.99
PC-14	1.11

Same assay, conditions: first compound 0.1 µM

Cell Line	relative viability
NCI-H23	0.94
NCI-H322M	0.816
NCI-H441	0.918
NCI-H460	1.13
NCI-H520	0.95
NCI-H596	0.773
NCI-H647	1.26
NCI-H838	1.08
NCI-H1355	0.947
NCI-H1395	1.08
NCI-H1437	1.23
NCI-H1650	1.11
NCI-H1651	0.948
NCI-H1666	0.918
NCI-H1734	0.83
NCI-H1755	0.928

Cell Line	relative viability
NCI-H1793	0.709
NCI-H1915	1.16
NCI-H1944	0.776
NCI-H1975	1.14
NCI-H1993	0.737
NCI-H2009	1.31
NCI-H2023	0.876
NCI-H2085	0.76
NCI-H2087	1.06
NCI-H2126	1.18
NCI-H2170	0.934
NCI-H2347	0.528
NCI-H2405	0.95
PC-3 [JPC-3]	1.04
PC-14	1.06

Same assay, conditions: first compound 0.3162 µM

Cell Line	relative viability
NCI-H23	1.09
NCI-H322M	0.939
NCI-H441	0.933
NCI-H460	1.23
NCI-H520	0.789
NCI-H596	0.848
NCI-H647	1.26
NCI-H838	1.08
NCI-H1355	1
NCI-H1395	1.01
NCI-H1437	1.25
NCI-H1650	1.37
NCI-H1651	0.718
NCI-H1666	1
NCI-H1734	0.949
NCI-H1755	1.05
NCI-H1793	0.731

Cell Line	relative viability
NCI-H1915	1.1
NCI-H1944	0.917
NCI-H1975	0.986
NCI-H1993	0.831
NCI-H2009	1.22
NCI-H2023	0.899
NCI-H2085	0.881
NCI-H2087	1.01
NCI-H2126	1.41
NCI-H2170	1.02
NCI-H2228	0.956
NCI-H2347	0.65
NCI-H2405	0.988
NCI-H3122	1.05
PC-3 [JPC-3]	1.03
PC-14	1.02

Same assay, conditions: first compound 1 µM

Cell Line	relative viability
NCI-H23	0.948
NCI-H322M	0.976
NCI-H441	0.943
NCI-H460	1.06
NCI-H520	0.676
NCI-H596	0.84
NCI-H647	1.37
NCI-H838	1.09
NCI-H1355	1.03
NCI-H1395	1.01
NCI-H1437	1.15
NCI-H1650	1.19
NCI-H1651	0.912
NCI-H1666	1.03
NCI-H1734	0.846
NCI-H1755	1.01
NCI-H1793	0.713

Cell Line	relative viability
NCI-H1915	1.12
NCI-H1944	0.834
NCI-H1975	1.07
NCI-H1993	0.708
NCI-H2009	1.27
NCI-H2023	0.818
NCI-H2085	1.06
NCI-H2087	1.11
NCI-H2126	1.08
NCI-H2170	1.07
NCI-H2228	0.86
NCI-H2347	0.89
NCI-H2405	1.03
NCI-H3122	0.962
PC-3 [JPC-3]	1.09
PC-14	0.997

What follows are cell lines tested with COc1nc(N)nc2c1ncn2[C@@H]1O[C@H](CO)[C@@H](O)[C@@H]1O [Nelarabine] + Nc1nc2[nH]cc(CCc3ccc(C(=O)N[C@@H](CCC(=O)O)C(=O)O)cc3)c2c(=O)[nH]1 [Pemetrexed] (partner 0.2 µM) in the same assay as above. Settings: first compound 0.01 µM.
Method in brief: as §1

Cell Line	relative viability
NCI-H23	1.04
NCI-H322M	0.601
NCI-H441	0.249
NCI-H460	0.0547
NCI-H520	0.768
NCI-H596	0.504
NCI-H647	0.17
NCI-H838	0.268
NCI-H1355	1.12
NCI-H1395	0.818
NCI-H1437	0.344
NCI-H1650	0.531
NCI-H1651	0.406
NCI-H1666	0.957
NCI-H1734	0.416
NCI-H1755	0.654
NCI-H1793	1.04

Cell Line	relative viability
NCI-H1915	0.676
NCI-H1944	0.659
NCI-H1975	0.376
NCI-H1993	0.632
NCI-H2009	1.09
NCI-H2023	0.353
NCI-H2085	0.906
NCI-H2087	0.782
NCI-H2126	0.879
NCI-H2170	0.269
NCI-H2228	0.342
NCI-H2347	0.423
NCI-H2405	0.939
NCI-H3122	0.194
PC-3 [JPC-3]	0.9
PC-14	0.136

Same assay, conditions: first compound 0.03162 µM

Cell Line	relative viability
NCI-H23	0.729
NCI-H322M	0.565
NCI-H441	0.277
NCI-H460	0.0633
NCI-H520	0.584
NCI-H596	0.517
NCI-H647	0.162
NCI-H838	0.252
NCI-H1355	1.05
NCI-H1395	0.755
NCI-H1437	0.359
NCI-H1650	0.406
NCI-H1651	0.548
NCI-H1666	0.919
NCI-H1734	0.473
NCI-H1755	0.377

Cell Line	relative viability
NCI-H1915	0.539
NCI-H1944	0.584
NCI-H1975	0.278
NCI-H1993	0.477
NCI-H2009	1.05
NCI-H2023	0.365
NCI-H2085	0.865
NCI-H2087	0.67
NCI-H2126	0.757
NCI-H2170	0.262
NCI-H2228	0.346
NCI-H2347	0.425
NCI-H2405	1.11
NCI-H3122	0.18
PC-3 [JPC-3]	0.866
PC-14	0.138

Same assay, conditions: first compound 0.1 µM

Cell Line	relative viability
NCI-H23	0.771
NCI-H322M	0.631
NCI-H441	0.27
NCI-H460	0.0599
NCI-H520	0.687
NCI-H596	0.574
NCI-H647	0.154
NCI-H838	0.287
NCI-H1355	1.02
NCI-H1395	1.21
NCI-H1437	0.301
NCI-H1650	0.381
NCI-H1651	0.63
NCI-H1666	0.872
NCI-H1734	0.368
NCI-H1755	0.363

Cell Line	relative viability
NCI-H1793	1.07
NCI-H1915	0.561
NCI-H1944	0.589
NCI-H1975	0.312
NCI-H1993	0.598
NCI-H2009	1.07
NCI-H2023	0.268
NCI-H2085	0.93
NCI-H2087	0.723
NCI-H2126	0.692
NCI-H2170	0.228
NCI-H2228	0.269
NCI-H2347	0.427
NCI-H2405	1.09
PC-3 [JPC-3]	1.36
PC-14	0.125

Same assay, conditions: first compound 0.3162 µM

Cell Line	relative viability
NCI-H23	0.71
NCI-H322M	0.653
NCI-H441	0.238
NCI-H460	0.0615
NCI-H520	0.842
NCI-H596	0.492
NCI-H647	0.194
NCI-H838	0.278
NCI-H1355	1.15
NCI-H1395	0.773
NCI-H1437	0.39
NCI-H1650	0.432
NCI-H1651	0.643
NCI-H1666	0.936
NCI-H1734	0.48
NCI-H1755	0.501
NCI-H1793	0.962

Cell Line	relative viability
NCI-H1915	0.658
NCI-H1944	0.617
NCI-H1975	0.305
NCI-H1993	0.64
NCI-H2009	1.08
NCI-H2023	0.244
NCI-H2085	0.871
NCI-H2087	0.7
NCI-H2126	0.765
NCI-H2170	0.318
NCI-H2228	0.374
NCI-H2347	0.447
NCI-H2405	1.16
NCI-H3122	0.204
PC-3 [JPC-3]	1.17
PC-14	0.142

Same assay, conditions: first compound 1 µM

Cell Line	relative viability
NCI-H23	0.666
NCI-H322M	0.61
NCI-H441	0.282
NCI-H460	0.0625
NCI-H520	0.786
NCI-H596	0.491
NCI-H647	0.217
NCI-H838	0.282
NCI-H1355	1.08
NCI-H1395	0.707
NCI-H1437	0.323
NCI-H1650	0.343
NCI-H1651	0.564
NCI-H1666	0.834
NCI-H1734	0.464
NCI-H1755	0.451
NCI-H1793	0.88

Cell Line	relative viability
NCI-H1915	0.699
NCI-H1944	0.61
NCI-H1975	0.303
NCI-H1993	0.67
NCI-H2009	1.11
NCI-H2023	0.228
NCI-H2085	0.87
NCI-H2087	0.717
NCI-H2126	0.807
NCI-H2170	0.303
NCI-H2228	0.4
NCI-H2347	0.397
NCI-H2405	1.01
NCI-H3122	0.195
PC-3 [JPC-3]	0.751
PC-14	0.158
